Source: patent US20090099029A1, “Methods and substrates for conducting assays” (Invitrogen Corporation, priority 2005, published 2009)
Like-named read-outs stand apart in the source and are kept apart here.

Columns and labels:
Assay in all cases: Further analysis of a plurality of inhibitors and a plurality of kinases (Table 5 inhibition results)
Assay type in all cases: biochemical
Parameters in all cases: scale not given here
kinases of Table 5 [1] = molecular target: kinases of Table 5 (Homo sapiens, UniProt O75716); conditions: kinase STK16 (Part I, plate C3, Domain 1)
Text: (§1) The wash solution is then discarded.

kinases of Table 5 [2] = molecular target: kinases of Table 5 (Homo sapiens, UniProt P06239); conditions: kinase LCK (Part I, plate A6, Domain 0)
Text: as §1

kinases of Table 5 [3] = molecular target: kinases of Table 5 (Homo sapiens, UniProt P07948)
Text: as §1

kinases of Table 5 [4] = molecular target: kinases of Table 5 (Homo sapiens, UniProt P11362); conditions: inhibitor 100 uM; for Inhibition level: kinase FGFR1; for Inhibition Results (Level): kinase FGFR1 (Part II, plate D12, Domain 1)
Text: as §1

kinases of Table 5 [5] = molecular target: kinases of Table 5 (Homo sapiens, UniProt P16591); conditions: inhibitor 100 uM; for Inhibition level: kinase FER; for Inhibition Results (Level): kinase FER (Part II, plate H5, Domain 1)
Text: as §1

kinases of Table 5 [6] = molecular target: T1, kinases of Table 5 (Homo sapiens, UniProt P45985)
T1 sequence (P45985 1-399): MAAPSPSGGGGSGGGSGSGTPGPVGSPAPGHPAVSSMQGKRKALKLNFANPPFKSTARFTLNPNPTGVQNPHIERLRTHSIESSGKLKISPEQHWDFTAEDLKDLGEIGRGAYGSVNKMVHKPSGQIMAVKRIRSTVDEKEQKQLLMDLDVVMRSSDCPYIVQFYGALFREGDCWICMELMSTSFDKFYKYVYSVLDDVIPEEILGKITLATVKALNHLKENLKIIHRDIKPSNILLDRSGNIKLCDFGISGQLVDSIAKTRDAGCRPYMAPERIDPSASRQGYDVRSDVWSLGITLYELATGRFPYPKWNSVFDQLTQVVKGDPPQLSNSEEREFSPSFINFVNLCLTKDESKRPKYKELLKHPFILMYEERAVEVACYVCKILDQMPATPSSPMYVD
Text: as §1

kinases of Table 5 [7] = molecular target: kinases of Table 5 (Homo sapiens, UniProt P68400); conditions: for Inhibition Results (Level): kinase CSNK2A1 (Part II, plate D9, Domain 0)
Text: as §1

kinases of Table 5 [8] = molecular target: kinases of Table 5 (Homo sapiens, UniProt Q00536); conditions: kinase PCTK1 (Part I, plate A3, Domain 0); inhibitor 100 uM
Text: as §1

kinases of Table 5 [9] = molecular target: kinases of Table 5 (Homo sapiens, UniProt Q05655); conditions: for Inhibition level: kinase PRKCD; for Inhibition Results (Level): kinase PRKCD (Part II, plate B2, Domain 0)
Text: as §1

kinases of Table 5 [10] = molecular target: kinases of Table 5 (Homo sapiens, UniProt Q7KZI7); conditions: kinase MARK2 (Part I, plate C4, Domain 1); inhibitor 100 uM
Text: as §1

kinases of Table 5 [11] = molecular target: T2, kinases of Table 5 (Homo sapiens, UniProt Q8IVH8); conditions: kinase MAP4K3 (Part I, plate C5, Domain 1); inhibitor 100 uM
T2 sequence (Q8IVH8 1-894): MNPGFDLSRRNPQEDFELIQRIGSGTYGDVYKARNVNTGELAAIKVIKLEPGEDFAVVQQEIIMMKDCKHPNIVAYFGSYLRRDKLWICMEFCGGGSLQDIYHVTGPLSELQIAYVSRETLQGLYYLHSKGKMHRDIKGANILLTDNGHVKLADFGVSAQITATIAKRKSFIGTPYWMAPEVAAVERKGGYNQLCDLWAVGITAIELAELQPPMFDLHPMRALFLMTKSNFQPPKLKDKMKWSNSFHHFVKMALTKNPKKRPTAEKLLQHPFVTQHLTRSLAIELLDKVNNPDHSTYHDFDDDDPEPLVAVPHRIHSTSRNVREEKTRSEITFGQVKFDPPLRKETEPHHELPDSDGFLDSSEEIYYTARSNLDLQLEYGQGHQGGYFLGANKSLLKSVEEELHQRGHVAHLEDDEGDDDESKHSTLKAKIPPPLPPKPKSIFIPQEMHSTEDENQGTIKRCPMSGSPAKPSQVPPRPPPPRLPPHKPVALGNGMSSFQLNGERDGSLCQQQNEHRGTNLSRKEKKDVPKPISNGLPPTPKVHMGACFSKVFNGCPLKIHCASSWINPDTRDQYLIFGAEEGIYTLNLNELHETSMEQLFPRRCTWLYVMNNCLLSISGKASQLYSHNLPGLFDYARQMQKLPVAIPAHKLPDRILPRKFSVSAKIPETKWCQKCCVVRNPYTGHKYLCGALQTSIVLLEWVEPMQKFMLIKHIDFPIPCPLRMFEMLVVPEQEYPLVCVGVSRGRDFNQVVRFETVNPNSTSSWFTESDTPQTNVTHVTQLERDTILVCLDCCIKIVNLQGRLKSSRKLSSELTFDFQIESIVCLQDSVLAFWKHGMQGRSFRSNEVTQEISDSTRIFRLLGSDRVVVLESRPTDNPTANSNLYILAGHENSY
Text: as §1

kinases of Table 5 [12] = molecular target: T3, kinases of Table 5 (Homo sapiens, UniProt Q9Y616); conditions: kinase IRAK3 (Part I, plate C9, Domain 1); inhibitor 100 uM
T3 sequence (Q9Y616 1-596): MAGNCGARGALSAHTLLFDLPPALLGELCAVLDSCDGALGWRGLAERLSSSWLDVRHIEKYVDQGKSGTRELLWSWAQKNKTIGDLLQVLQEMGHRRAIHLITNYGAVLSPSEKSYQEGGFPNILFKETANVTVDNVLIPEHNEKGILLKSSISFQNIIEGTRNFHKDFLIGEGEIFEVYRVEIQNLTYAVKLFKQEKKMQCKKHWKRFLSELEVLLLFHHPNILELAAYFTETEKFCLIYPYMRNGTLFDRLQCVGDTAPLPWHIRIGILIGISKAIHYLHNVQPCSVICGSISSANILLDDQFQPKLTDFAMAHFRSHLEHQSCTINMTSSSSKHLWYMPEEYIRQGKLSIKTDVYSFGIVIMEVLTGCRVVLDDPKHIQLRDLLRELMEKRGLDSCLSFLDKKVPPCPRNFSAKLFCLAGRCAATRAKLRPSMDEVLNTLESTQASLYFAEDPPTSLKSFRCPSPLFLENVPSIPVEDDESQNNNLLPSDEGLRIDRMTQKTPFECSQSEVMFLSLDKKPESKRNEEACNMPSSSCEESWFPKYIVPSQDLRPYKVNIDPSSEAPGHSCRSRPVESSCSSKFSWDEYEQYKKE
Text: as §1

[13] = kinase LYN (Part I, plate A5, Domain 0), inhibitor 100 uM
[14] = kinase MAP2K4 (Part I, plate E6, Domain 1), inhibitor 100 uM
[15] = kinase CSNK2A1, inhibitor 100 uM
[16] = kinase CSNK2A1, concentration not given

kinases of Table 5 (Homo sapiens, UniProt P06239), sequence (P06239 whole entry): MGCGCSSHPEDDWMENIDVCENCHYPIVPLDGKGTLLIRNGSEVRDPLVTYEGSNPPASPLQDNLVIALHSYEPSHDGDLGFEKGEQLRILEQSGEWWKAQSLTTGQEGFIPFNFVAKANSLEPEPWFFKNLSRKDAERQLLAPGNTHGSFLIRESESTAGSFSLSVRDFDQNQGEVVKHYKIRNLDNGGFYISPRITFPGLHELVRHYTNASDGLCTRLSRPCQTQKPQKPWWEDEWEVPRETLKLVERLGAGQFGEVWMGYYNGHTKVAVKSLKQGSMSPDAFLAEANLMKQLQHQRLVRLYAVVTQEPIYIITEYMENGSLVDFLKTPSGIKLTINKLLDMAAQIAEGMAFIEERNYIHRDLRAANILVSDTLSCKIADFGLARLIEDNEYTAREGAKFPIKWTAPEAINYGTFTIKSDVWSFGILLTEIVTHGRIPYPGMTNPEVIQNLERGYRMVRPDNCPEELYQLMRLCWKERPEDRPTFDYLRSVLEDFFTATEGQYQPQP
kinases of Table 5 (Homo sapiens, UniProt P07948), sequence (P07948 whole entry): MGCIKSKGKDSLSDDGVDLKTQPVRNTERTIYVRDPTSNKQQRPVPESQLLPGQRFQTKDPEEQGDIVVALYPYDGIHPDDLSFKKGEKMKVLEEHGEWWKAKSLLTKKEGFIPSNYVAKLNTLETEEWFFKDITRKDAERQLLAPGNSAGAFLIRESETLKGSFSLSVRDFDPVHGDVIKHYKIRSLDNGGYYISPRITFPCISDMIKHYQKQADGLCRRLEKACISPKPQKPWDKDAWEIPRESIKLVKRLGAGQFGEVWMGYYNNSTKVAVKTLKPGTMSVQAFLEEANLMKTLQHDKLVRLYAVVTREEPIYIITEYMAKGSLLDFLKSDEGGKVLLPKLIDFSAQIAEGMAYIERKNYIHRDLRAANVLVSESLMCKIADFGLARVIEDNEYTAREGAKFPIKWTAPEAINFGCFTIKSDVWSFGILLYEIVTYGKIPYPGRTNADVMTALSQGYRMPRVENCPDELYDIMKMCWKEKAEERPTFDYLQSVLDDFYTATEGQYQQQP
kinases of Table 5 (Homo sapiens, UniProt P16591), sequence (P16591 whole entry): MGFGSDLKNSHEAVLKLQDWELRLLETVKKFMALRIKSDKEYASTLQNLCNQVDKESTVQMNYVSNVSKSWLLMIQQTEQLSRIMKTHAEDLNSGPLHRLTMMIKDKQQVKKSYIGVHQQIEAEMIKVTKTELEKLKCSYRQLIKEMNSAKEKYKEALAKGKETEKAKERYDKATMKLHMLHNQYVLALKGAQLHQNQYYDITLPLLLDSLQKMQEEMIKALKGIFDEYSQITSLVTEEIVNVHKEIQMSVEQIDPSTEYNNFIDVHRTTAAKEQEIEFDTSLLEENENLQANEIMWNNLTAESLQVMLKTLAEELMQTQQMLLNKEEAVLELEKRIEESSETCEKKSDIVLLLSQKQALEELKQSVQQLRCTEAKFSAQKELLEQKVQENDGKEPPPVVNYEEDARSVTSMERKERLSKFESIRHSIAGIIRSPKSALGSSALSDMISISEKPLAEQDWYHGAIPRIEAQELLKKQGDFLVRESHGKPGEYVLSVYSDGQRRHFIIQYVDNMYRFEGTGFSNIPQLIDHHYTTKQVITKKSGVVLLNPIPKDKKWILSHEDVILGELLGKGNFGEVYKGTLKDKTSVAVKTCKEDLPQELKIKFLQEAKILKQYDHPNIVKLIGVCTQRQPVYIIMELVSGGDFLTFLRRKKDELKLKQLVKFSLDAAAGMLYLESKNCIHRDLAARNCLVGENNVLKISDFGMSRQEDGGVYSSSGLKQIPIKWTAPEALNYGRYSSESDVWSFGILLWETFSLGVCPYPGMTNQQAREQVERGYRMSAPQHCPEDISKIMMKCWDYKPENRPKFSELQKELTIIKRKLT
kinases of Table 5 (Homo sapiens, UniProt Q7KZI7), sequence (Q7KZI7 whole entry): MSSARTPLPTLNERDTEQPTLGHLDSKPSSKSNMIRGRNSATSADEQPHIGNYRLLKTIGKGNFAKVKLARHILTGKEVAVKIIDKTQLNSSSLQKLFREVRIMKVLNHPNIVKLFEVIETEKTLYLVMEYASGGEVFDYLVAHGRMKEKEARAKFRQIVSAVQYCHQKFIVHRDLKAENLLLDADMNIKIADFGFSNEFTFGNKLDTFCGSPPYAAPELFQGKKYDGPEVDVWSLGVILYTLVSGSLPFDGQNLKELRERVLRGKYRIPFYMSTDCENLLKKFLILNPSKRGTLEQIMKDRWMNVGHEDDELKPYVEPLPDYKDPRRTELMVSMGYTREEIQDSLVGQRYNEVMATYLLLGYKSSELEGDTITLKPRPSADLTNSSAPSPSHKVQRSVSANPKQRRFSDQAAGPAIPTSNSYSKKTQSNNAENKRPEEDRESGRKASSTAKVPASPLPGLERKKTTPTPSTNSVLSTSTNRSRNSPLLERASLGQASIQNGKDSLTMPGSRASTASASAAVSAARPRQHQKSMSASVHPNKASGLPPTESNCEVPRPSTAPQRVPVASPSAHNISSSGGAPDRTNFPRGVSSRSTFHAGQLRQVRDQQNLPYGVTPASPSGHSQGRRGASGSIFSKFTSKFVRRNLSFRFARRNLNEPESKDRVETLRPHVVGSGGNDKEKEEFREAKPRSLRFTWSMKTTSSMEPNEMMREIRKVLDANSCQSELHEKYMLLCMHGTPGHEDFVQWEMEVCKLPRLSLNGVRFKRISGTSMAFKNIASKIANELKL
kinases of Table 5 (Homo sapiens, UniProt P11362), sequence (P11362 22-822): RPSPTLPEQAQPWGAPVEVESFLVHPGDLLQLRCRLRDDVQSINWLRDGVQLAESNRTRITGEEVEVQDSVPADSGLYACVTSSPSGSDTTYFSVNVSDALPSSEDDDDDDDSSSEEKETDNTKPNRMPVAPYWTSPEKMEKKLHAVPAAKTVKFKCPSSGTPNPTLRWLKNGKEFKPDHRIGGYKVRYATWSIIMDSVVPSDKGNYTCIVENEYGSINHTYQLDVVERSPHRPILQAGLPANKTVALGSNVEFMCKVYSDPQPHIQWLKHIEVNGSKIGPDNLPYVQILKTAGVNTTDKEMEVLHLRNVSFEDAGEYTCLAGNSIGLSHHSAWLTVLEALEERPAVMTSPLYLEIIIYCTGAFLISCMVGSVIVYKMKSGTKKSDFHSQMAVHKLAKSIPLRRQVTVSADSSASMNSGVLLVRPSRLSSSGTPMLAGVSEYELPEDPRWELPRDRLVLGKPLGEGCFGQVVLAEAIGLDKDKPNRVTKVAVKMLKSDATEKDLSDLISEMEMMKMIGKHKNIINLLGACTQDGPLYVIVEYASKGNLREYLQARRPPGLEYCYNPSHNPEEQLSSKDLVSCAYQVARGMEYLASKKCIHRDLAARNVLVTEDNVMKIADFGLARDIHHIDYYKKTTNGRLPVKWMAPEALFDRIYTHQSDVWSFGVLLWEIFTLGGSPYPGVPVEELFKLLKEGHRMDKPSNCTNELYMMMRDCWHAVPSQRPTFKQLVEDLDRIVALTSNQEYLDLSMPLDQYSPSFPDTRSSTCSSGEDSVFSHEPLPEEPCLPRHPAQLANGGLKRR
kinases of Table 5 (Homo sapiens, UniProt Q05655), sequence (Q05655 whole entry): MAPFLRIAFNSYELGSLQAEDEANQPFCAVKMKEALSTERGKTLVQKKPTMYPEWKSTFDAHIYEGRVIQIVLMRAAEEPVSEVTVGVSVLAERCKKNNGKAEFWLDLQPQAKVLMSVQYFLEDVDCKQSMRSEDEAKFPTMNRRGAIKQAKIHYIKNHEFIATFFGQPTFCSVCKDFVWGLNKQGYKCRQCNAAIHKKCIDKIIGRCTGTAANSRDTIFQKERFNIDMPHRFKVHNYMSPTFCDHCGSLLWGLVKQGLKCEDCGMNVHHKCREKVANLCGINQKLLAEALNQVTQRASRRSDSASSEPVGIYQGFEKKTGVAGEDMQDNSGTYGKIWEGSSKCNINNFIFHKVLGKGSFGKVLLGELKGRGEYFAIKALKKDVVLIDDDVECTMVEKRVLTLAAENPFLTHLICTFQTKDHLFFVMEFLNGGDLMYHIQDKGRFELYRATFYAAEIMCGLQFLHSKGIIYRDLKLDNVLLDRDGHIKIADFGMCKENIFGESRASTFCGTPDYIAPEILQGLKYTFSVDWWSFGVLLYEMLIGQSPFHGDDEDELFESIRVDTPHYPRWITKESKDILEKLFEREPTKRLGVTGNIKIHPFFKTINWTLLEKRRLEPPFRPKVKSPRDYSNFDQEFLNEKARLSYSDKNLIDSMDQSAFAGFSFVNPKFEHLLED
kinases of Table 5 (Homo sapiens, UniProt O75716), sequence (O75716 whole entry): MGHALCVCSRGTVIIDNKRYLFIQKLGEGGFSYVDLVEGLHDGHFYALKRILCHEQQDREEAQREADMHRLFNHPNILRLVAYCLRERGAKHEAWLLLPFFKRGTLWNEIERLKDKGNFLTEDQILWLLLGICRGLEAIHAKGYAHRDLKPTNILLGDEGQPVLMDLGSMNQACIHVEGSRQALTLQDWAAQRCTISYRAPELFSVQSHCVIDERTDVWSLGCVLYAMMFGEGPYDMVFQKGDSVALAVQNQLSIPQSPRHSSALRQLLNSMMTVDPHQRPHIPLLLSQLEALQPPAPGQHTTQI
kinases of Table 5 (Homo sapiens, UniProt P68400), sequence (P68400 whole entry): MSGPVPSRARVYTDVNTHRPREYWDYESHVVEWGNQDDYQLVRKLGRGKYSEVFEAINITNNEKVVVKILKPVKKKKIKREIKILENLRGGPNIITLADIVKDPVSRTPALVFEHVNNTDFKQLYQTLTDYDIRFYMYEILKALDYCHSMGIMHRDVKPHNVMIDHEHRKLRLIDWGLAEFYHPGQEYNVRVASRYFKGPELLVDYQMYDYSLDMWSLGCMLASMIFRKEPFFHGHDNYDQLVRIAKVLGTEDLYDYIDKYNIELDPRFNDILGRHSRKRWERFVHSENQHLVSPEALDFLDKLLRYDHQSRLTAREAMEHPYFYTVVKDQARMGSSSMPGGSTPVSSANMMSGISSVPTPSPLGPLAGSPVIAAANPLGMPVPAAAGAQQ

SMILES	Inhibition Results (Level) (kinases of Table 5 [1]; inhibitor 100 uM)	Inhibition Results (Level) (kinases of Table 5 [2]; inhibitor 100 uM)	Inhibition Results (Level) (kinases of Table 5 [3]; [13])	Inhibition level (kinases of Table 5 [4])	Inhibition level (kinases of Table 5 [5])	Inhibition Results (Level) (kinases of Table 5 [6]; [14])	Inhibition level (kinases of Table 5 [7]; [15])	Inhibition Results (Level) (kinases of Table 5 [8])	Inhibition level (kinases of Table 5 [9]; inhibitor 100 uM)	Inhibition Results (Level) (kinases of Table 5 [10])	Inhibition Results (Level) (kinases of Table 5 [11])	Inhibition Results (Level) (kinases of Table 5 [12])	Inhibition Results (Level) (kinases of Table 5 [5])	Inhibition Results (Level) (kinases of Table 5 [9]; inhibitor 100 uM)	further results
N#C/C(=C/c1ccc(O)c(O)c1)C(=O)NCc1ccccc1 [AG 490]	0	2	2	0	2	0	2	0	0	2	1	0			
COc1cc2ncnc(Nc3cccc(Cl)c3)c2cc1OC [AG 1478]	0	2	2	1	1	0	2	0	0	2	2	2			
O=c1c(-c2ccc(O)cc2)coc2cc(O)cc(O)c12 [Genistein]	0	2	2	0	2	2	2	1	0	2	2	2			Inhibition Results (Level) (kinases of Table 5 [1]; inhibitor <3.7 mM): 0; Inhibition Results (Level) (kinases of Table 5 [2]; inhibitor <3.7 mM): 0; Inhibition Results (Level) (kinases of Table 5 [3]; kinase LYN (Part I, plate A5, Domain 0), inhibitor <3.7 mM): 2; Inhibition Results (Level) (kinases of Table 5 [6]; kinase MAP2K4 (Part I, plate E6, Domain 1), inhibitor <3.7 mM): 0; Inhibition level (kinases of Table 5 [7]; [16]): 0; Inhibition level (kinases of Table 5 [9]; concentration not given): 0
O=S(=O)(NCCNC/C=C/c1ccc(Br)cc1)c1cccc2cnccc12 [H-89]	2	2	2			1		2		2	1	0	2	1	Inhibition Results (Level) (kinases of Table 5 [4]): 1; Inhibition Results (Level) (kinases of Table 5 [7]; inhibitor 100 uM): 0
CC(C)(C)n1nc(-c2ccc(Cl)cc2)c2c(N)ncnc21 [PP2]	2		2	2	2	2	2	1	0	2	2	2			
O=c1c(O)c(-c2ccc(O)c(O)c2)oc2cc(O)cc(O)c12 [Quercetin]	0		2			0		0			1	0	1	0	
Cn1cc(C2=C(c3cn(CCCSC(=N)N)c4ccccc34)C(=O)NC2=O)c2ccccc21 [Ro-31-8220]	1	2	2	2	2	1	2	0	0	2	2	2			Inhibition Results (Level) (kinases of Table 5 [1]; inhibitor 90 uM): 2; Inhibition Results (Level) (kinases of Table 5 [2]; inhibitor 90 uM): 0; Inhibition Results (Level) (kinases of Table 5 [3]; kinase LYN (Part I, plate A5, Domain 0), inhibitor 90 uM): 0; Inhibition Results (Level) (kinases of Table 5 [6]; kinase MAP2K4 (Part I, plate E6, Domain 1), inhibitor 90 uM): 0; Inhibition level (kinases of Table 5 [7]; [16]): 0; Inhibition level (kinases of Table 5 [9]; concentration not given): 2
CC(=O)c1c(O)c(C)c(O)c(Cc2c(O)c3c(c(C(=O)/C=C/c4ccccc4)c2O)OC(C)(C)C=C3)c1O [Rottlerin (Mallotoxin)]	0	2	2			1		0		2	1	2	2	0	Inhibition Results (Level) (kinases of Table 5 [4]): 1; Inhibition Results (Level) (kinases of Table 5 [7]; inhibitor 100 uM): 2
CN[C@@H]1C[C@H]2O[C@@](C)([C@@H]1OC)n1c3ccccc3c3c4c(c5c6ccccc6n2c5c31)C(=O)NC4 [Staurosporine]															Inhibition Results (Level) (kinases of Table 5 [1]; inhibitor 21.5 uM): 2; Inhibition Results (Level) (kinases of Table 5 [3]): 0; Inhibition Results (Level) (kinases of Table 5 [6]): 0; Inhibition level (kinases of Table 5 [7]): 2
